According to PMC6259748, “Selection of Peptides Targeting Helix 31 of Bacterial 16S Ribosomal RNA by Screening M13 Phage-Display Libraries” (Molecules, 2011):

Key:
[1] = test system: translation of green fluorescent protein (GFP); assay: coupled in vitro transcription-translation inhibition assay (GFP); assay type: biochemical, E. coli; conditions: for inhibition of in vitro protein synthesis: cell-free translation, summary statement; for GFP fluorescence lower compared to DIRTQRE: peptide 1 mM, at 120 min, ex 487 nm; for order of translation inhibition by peptides (from high to low) / inhibitory effect on protein translation: peptides at 1 mM, GFP fluorescence; for inhibitory effect on protein translation: in words
Description: A cell-free translation assay was used to test the potential inhibitory effects of the peptides on protein synthesis. Different concentrations of peptides were added to E. coli S30 extracts and the extent of inhibition was monitored by the measurement of green fluorescent protein (GFP) translation.
The inhibitory effects of selected peptides (DIRTQRE, CVRPFAL, FVRPFAL, TLWDLIP and TYLPWPA) on cellular processes were determined by in vitro coupled transcription-translation inhibition assay. The PURExpress™ in vitro protein synthesis kit #E6800S from New England Biolabs (Beverly, MA) was used for this purpose. A DNA template for GFP (pRSETEmGFP plasmid, Invitrogen) was employed at a concentration of 10 µg/mL in a 15 µL of reaction volume. Different concentrations of peptides were added, ranging from 300 µM to 2 mM. The DNA template was added only after mixing of the peptides or streptomycin so that they could bind to their target region first. For the control, streptomycin was added at a final concentration of 300 µM. The reaction was incubated in 384-well, Costar, clear-well, black plates and in situ incubated at 37 °C in a Gemini XPS microplate spectrofluorometer (Molecular Devices, Sunnyvale, CA) and the amount of GFP produced was monitored at different time intervals from 0 min to 2 h by fluorescence (excitation at 487 nm, emission at 509 nm).

wild-type modified h31 = assay: surface plasmon resonance (SPR), modified h31; assay type: binding, E. coli
Description: Modified h31 was labeled with biotin in order to immobilize the RNA onto a surface and determine the kinetics of peptide binding by surface plasmon resonance (SPR). […] In order to enhance the signal-to-noise ratio, a GFP-protein-fused peptide, TYLPWPA-GFP, was generated and used as the analyte.
Biotinylated, modified h31 RNA was immobilized onto a streptavidin-coated CM5 chip and differing concentrations of TYLPWPA-GFP (10–100 µM) were injected as the analyte. A range of salt concentrations, detergent levels, pH conditions, and flow rates were tested, since these factors affect the peptide-RNA complex formation (data not shown). The apparent dissociation constants were determined under the following optimized conditions: 10 mM Tris·HCl, 150 mM NaCl, 10 mM MgCl2, 1 mM dithiothreitol (DTT), 0.005% (v/v) P20 at pH 7.5 as the running buffer at a flow rate of 50 μL/min.
All immobilization and subsequent binding studies were performed using a BIAcore 2000 instrument set at a temperature of 25 °C. Standard dextran surface BIAcore sensorchips (Sensor chip CM5) were purchased from BIAcore (GE Healthcare, Piscataway, NJ). Standard desorb and sanitize routines were performed according to the BIAcore guidelines before docking a new CM5 sensor chip. All buffers were filtered through sterile 0.2 μm nylon membranes (Millipore™) under vacuum. Before derivatizing the flow cells with streptavidin, the CM5 sensor chip was pre-conditioned using three successive 10 μL injections of chip-preparation solution (10 mM NaOH, 500 mM NaCl) at 100 μL/min, followed by a normalization routine using BIAnormalizing solution (40% glycerol). Streptavidin derivatization was performed according to standard procedures.
Prior to immobilization, the solution of biotinylated RNA in HBS-EP buffer (10 mM HEPES, 3 mM EDTA, 150 mM NaCl, 0.005% P20 at pH 7.4) was renatured by heating to 90 °C for 2 min, cooling gradually to room temperature, and placing on ice. Flow cells were functionalized by injecting 30 μL of RNA at a time using the MANUAL INJECT command at a flow rate of 10 μL/min, until the desired immobilization level was reached. One of the flow cells was used to immobilize RNA, while the adjacent cell remained unmodified to serve as a blank-control for matrix effects. Levels of RNA captured were calculated by subtracting […] for each flow cell. After RNA immobilization, both flow cells were blocked with 100 μL of 1 mg/mL biotin at 5 μL/min.
For the SPR experiments, the peptides were cloned into plasmid pBacEmGH (Cunningham Lab, to be described elsewhere) under transcriptional regulation of a PBAD promoter. Upon induction with L-arabinose, the resulting construct produces a fusion protein in which the peptide is fused to the N-terminus of EmGFP containing a C-terminus 6 x His affinity tag (PEP-EmGFP-6 x His).
Peptide samples were prepared by serial dilutions from stock solutions. Dilutions were made in running buffer (10 mM Tris·HCl, 150 mM NaCl, 10 mM MgCl2, 1 mM DTT, 0.005% (v/v) P20 at pH 7.5). All procedures for binding were automated, as optimized methods using repetitive cycles of sample injection and regeneration. Typically, running buffer was injected for ~30 min prior to experiment to establish a stable baseline value. Peptide solutions (200 μL) were injected at a kinetic flow rate of 50 μL/min, using the KINJECT command. All peptide samples were injected from 7 mm plastic vials (BIAcore) that were capped with pierceable plastic-crimp-caps to minimize carry-over and sample evaporation. Samples were injected in order of increasing concentration. The surface was regenerated using 150 μL of 500 mM NaCl. The data were fit to a 1:1 binding Langmuir model using BIAevaluation 3.0 software. […]

[2] = test system: GFP-S11-labeled 30S subunits; assay: ribosome-binding assay on Tentagel beads; set-up: species or system E. coli; conditions: for order of binding preference by the 30S subunits (from high to low): fluorescence microscopy, pH 7.3; for fluorescence on beads after 30S binding: peptide on Tentagel beads, 30S subunits overnight at 4 °C, 20 mM HEPES, pH 7.3, 10 mM MgCl2, 100 mM KCl, duplicate
Description: The purpose of this experiment was to determine whether the selected peptides have affinity for bacterial ribosomes. The binding affinities of various peptides could also be compared by this method. Small ribosomal subunits, 30S, labeled with GFP on ribosomal protein S11 were added to peptides covalently attached to Tentagel beads (Figure 4A). […] The peptides were chemically synthesized on Tentagel beads with their N-termini exposed. Increasing concentrations of GFP-tagged 30S subunits were added to the Tentagel-bound peptides and unbound 30S subunits were removed by washing. Relative fluorescence intensity of the 30S subunits bound to the peptides on bead was determined by imaging on a fluorescence microscope, with the assumption that the level of fluorescence on the beads was proportional to the affinity of the ribosome for the peptide sequence.
Four peptides isolated from the phage-display experiment, […], DIRTQRE, TLWDLIP, and […], were synthesized on Tentagel (Rapp Polymer, Tübingen, Germany) beads using standard Fmoc synthesis. The beads were stored in DMF until use. The beads were then washed three times with 450 μl of water, and three times with 450 μL of the binding buffer B (binding buffer: 20 mM HEPES, pH 7.3, 10 mM MgCl2, 100 mM KCl), using 0.45 μm MWCO Nanosep (Pall Corporation, Ann Arbor, MI). The beads were then centrifuged at 6,000 rpm for 1–2 min.
Fluorescently labeled 30S subunits were isolated by sucrose gradient centrifugation in 5 mM Mg^2+ [82]. For control experiments, His(6)-EmGFP-S11 was purified using IMAC resin (Bio-Rad, Hercules, CA) and the fluorescence was assayed using beads carrying peptides with ribosomes, beads carrying peptides with His(6)-EmGFP-S11 (no ribosomes) and beads only with ribosomes (no peptides).
The fluorescent ribosomes were incubated in binding buffer B (20 mM HEPES, pH 7.3, 10 mM MgCl2, 100 mM KCl) at 37 °C for 30 min. Next, 25 pmoles of ribosome solution was added to each peptide, and the mixture was incubated overnight at 4 °C with agitation. Unbound ribosomes were removed by two 450 μL washes with binding buffer B and centrifugation at 6,000 rpm for 1–2 min. The beads were resuspended in 40 μL of binding buffer B for microscope screening and kept on ice until scanning. The beads (20 μL) were spread on microscope slides for scanning (Olympus 1X71 microscope, TH4 100 Olympus lamp, Olympus UCMAD 3 camera, 20× magnification). An average of two pictures were taken per slide, eliminating beads presenting uneven swelling and cracks.

GFP (EmGFP) = assay: SPR; conditions: m2G966; m5C967 (E. coli numbering); 5' phosphorothioate; SPR: 10 mM Tris-HCl pH 7.5, 150 mM NaCl, 10 mM MgCl2, 1 mM DTT, 0.005% P20, 50 uL/min, streptavidin-coated CM5 chip; CD: 10 mM sodium phosphate pH 7, 100 mM …
[3] = test system: TLWDLIP-GFP (synthetic fusion (expressed by L-arabinose induction)); assay: SPR; conditions: m2G966; m5C967 (E. coli numbering); 5' phosphorothioate; SPR: 10 mM Tris-HCl pH 7.5, 150 mM NaCl, 10 mM MgCl2, 1 mM DTT, 0.005% P20, 50 uL/min, streptavidin-coated CM5 chip; CD: 10 mM sodium phosphate pH 7, 100 mM …
[4] = test system: TYLPWPA-GFP (synthetic fusion (expressed by L-arabinose induction)); assay: SPR; conditions: m2G966; m5C967 (E. coli numbering); 5' phosphorothioate; SPR: 10 mM Tris-HCl pH 7.5, 150 mM NaCl, 10 mM MgCl2, 1 mM DTT, 0.005% P20, 50 uL/min, streptavidin-coated CM5 chip; CD: 10 mM sodium phosphate pH 7, 100 mM …
[5] = test system: CVRPFAL-GFP (synthetic fusion (expressed by L-arabinose induction)); assay: SPR; conditions: m2G966; m5C967 (E. coli numbering); 5' phosphorothioate; SPR: 10 mM Tris-HCl pH 7.5, 150 mM NaCl, 10 mM MgCl2, 1 mM DTT, 0.005% P20, 50 uL/min, streptavidin-coated CM5 chip; CD: 10 mM sodium phosphate pH 7, 100 mM …
TYLPWPA peptide [6] = target: T1, TYLPWPA peptide (synthetic (phage display)); assay: CD titration; 100 mM NaCl, 10 mM sodium phosphate, 0.1 mM Na2EDTA, pH 7.0, 25 C; apparent, poor fit; SPR: 10 mM Tris-HCl pH 7.5, 150 mM NaCl, 10 mM MgCl2, 1 mM DTT, 0.005% P20, 50 uL/min, streptavidin-coated CM5 chip; CD: 10 mM sodium phosphate pH 7, 100 mM NaCl, 0.1 mM Na2EDTA, 25 C; fluorescence: 10 mM HEPES pH 7.5, 50 mM NaCl, 1 mM Na2EDTA, 25 C; conditions: hairpin
T1 chain: TYLPWPA

TYLPWPA peptide [7] = target: T1, TYLPWPA peptide; assay: fluorescence titration (quenching); 10 mM HEPES, 50 mM NaCl, 1 mM Na2EDTA, pH 7.5, 25 C; apparent, 7% signal change; SPR: 10 mM Tris-HCl pH 7.5, 150 mM NaCl, 10 mM MgCl2, 1 mM DTT, 0.005% P20, 50 uL/min, streptavidin-coated CM5 chip; CD: 10 mM sodium phosphate pH 7, 100 mM NaCl, 0.1 mM Na2EDTA, 25 C; fluorescence: 10 mM HEPES pH 7.5, 50 mM NaCl, 1 mM Na2EDTA, 25 C; conditions: label: 5'-fluorescein; hairpin

[H]/N=C(/N)N[C@H]1[C@H](O)[C@@H](O)[C@H](O[C@@H]2O[C@@H](C)[C@](O)(C=O)[C@H]2O[C@@H]2O[C@@H](CO)[C@H](O)[C@@H](O)[C@@H]2NC)[C@@H](N/C(N)=N\[H])[C@@H]1O [Streptomycin, streptomycin, reference compound]
inhibition of GFP translation ([1]; 300 µM, positive control, 37 °C, fluorescence ex 487 nm, em 509 nm): completely inhibited GFP translation

CVRPFAL [heptapeptide from selection against modified h31 with unmodified h31 counter selection]
binding affinity to modified h31 (wild-type modified h31; in words, comparable to known antibiotics targeting 16S rRNA): high nM
order of binding preference by the 30S subunits (from high to low) ([2]; Tentagel beads): TYLPWPA > CVRPFAL ≈ TLWDLIP > DIRTQRE
fluorescence on beads after 30S binding [2]: Fluorescence is observed
inhibition of in vitro protein synthesis [1]: inhibit in vitro protein synthesis
GFP fluorescence lower compared to DIRTQRE ([1]; em 509 nm): four
order of translation inhibition by peptides (from high to low) ([1]; 37 °C): CVRPFAL ≈ FVRPFAL > TLWDLIP > TYLPWPA > DIRTQRE
inhibitory effect on protein translation [1]: best inhibitory effects

DIRTQRE [heptapeptide selected against wild-type modified h31]
order of binding preference by the 30S subunits (from high to low) ([2]; Tentagel beads): TYLPWPA > CVRPFAL ≈ TLWDLIP > DIRTQRE
relative binding affinity to 30S subunits ([2]; Tentagel beads, quantified fluorescence, of the four peptides tested): lowest relative affinity
fluorescence on beads after 30S binding [2]: Fluorescence is observed
order of translation inhibition by peptides (from high to low) ([1]; 37 °C): CVRPFAL ≈ FVRPFAL > TLWDLIP > TYLPWPA > DIRTQRE

FVRPFAL [heptapeptide selected against wild-type modified h31]
inhibition of in vitro protein synthesis [1]: promising results in the in vitro translation assay
GFP fluorescence lower compared to DIRTQRE ([1]; em 509 nm): four
order of translation inhibition by peptides (from high to low) ([1]; 37 °C): CVRPFAL ≈ FVRPFAL > TLWDLIP > TYLPWPA > DIRTQRE
inhibitory effect on protein translation [1]: best inhibitory effects

GUUCGAUGCAACGCGAAC [modified h31 (wild-type), biotinylated]
Kd (GFP (EmGFP)): 20 µM
Kd [3]: 0.33 µM
Kd [4]: 28 µM
Kd [5]: 0.23 µM

TYLPWPA-GFP
ka (association rate constant) (wild-type modified h31; 1:1 Langmuir, 10 mM Tris·HCl, 150 mM NaCl, 10 mM MgCl2, 1 mM DTT, 0.005% P20, pH 7.5, 50 μL/min, 25 °C, CM5 chip): (1.50 ± 0.02) × 10^2 M^-1s^-1
kd (dissociation rate constant) (wild-type modified h31; 1:1 Langmuir, pH 7.5, 150 mM NaCl, 10 mM MgCl2, 50 μL/min, 25 °C, CM5 chip): (4.2 ± 0.04) × 10^-3 s^-1
KD (kd/ka) (wild-type modified h31; SPR kinetic analysis, 1:1 Langmuir, pH 7.5, 150 mM NaCl, 10 mM MgCl2, 50 μL/min, 25 °C, TYLPWPA-GFP 10–100 µM): 28 ± 1 µM

GUUCGAUGCAACGCGAAC (structured_RNA, m2G966; m5C967 (E. coli numbering)) [modified h31 (wild-type), unlabeled]
Kd (TYLPWPA peptide [6]): 28 ± 10 µM

GUUCGAUGCAACGCGAAC (structured_RNA, m2G966; m5C967 (E. coli numbering); 5' phosphorothioate) [F-h31 (modified h31, fluorescein)]
Kd (TYLPWPA peptide [7]): 27 ± 4 µM
